# Source: patent US20220242870A1, “HETEROCYCLE-FUSED PYRIMIDINE DERIVATIVE AND USE THEREOF” (VORONOI Inc., priority 2019, published 2022)
# Target: T1, human FLT3-ITD enzyme (Homo sapiens, UniProt P36888)
# T1 sequence (P36888 1-993): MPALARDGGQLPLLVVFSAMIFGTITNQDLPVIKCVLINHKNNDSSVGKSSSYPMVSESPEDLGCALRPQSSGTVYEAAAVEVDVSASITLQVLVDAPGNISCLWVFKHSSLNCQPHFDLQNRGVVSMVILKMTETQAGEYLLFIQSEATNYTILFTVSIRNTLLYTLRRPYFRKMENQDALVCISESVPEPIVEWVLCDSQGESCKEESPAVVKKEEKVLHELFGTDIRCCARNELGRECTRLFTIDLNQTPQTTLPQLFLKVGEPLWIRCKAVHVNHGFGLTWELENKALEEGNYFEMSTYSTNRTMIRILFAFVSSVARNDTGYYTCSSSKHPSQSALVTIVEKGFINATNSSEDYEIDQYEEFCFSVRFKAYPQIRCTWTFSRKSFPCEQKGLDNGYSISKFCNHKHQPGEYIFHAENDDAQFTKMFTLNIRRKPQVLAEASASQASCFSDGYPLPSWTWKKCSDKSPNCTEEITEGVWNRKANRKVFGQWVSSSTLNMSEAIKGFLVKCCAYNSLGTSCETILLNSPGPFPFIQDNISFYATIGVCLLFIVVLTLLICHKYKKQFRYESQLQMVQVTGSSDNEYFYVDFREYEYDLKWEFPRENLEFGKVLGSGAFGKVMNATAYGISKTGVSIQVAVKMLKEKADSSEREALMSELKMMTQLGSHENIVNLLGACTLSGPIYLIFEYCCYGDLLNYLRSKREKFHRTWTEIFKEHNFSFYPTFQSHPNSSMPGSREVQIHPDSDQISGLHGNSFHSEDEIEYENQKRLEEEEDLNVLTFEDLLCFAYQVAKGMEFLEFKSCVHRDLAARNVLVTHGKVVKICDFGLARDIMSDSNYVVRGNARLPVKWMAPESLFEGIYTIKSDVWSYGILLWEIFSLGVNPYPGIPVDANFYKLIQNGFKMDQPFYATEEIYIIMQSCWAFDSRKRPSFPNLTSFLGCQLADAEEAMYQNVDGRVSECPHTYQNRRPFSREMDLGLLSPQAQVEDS
# Assay: FLT3 enzyme inhibitory ability (ADP-Glo kinase assay)
# Assay type: biochemical
# Conditions: human FLT3-ITD enzyme 10 ng, ATP 10 μM, 25° C. 1 hour
# Method: The inhibitory activities of the example compounds according to the present invention to the FLT3-ITD enzyme were evaluated. Specifically, the compound of the present invention was reacted with a purified human FLT3-ITD enzyme (Signalchem). A composition of 40 mM Tris-HCl pH 7.4, 20 mM MgCl2, 0.5 mg/mL BSA and 50 μM DTT was used as a reaction buffer, and reactions of all test matters were performed on the reaction buffer. Upon the test, human FLT3-ITD enzyme (10 ng), purified ATP (10 μM) and a specific substrate solution were reacted at 25° C. for 1 hour, and then the enzyme activity was identified using an in vitro ADP-Glo™ kinase assay (Promega). The enzyme activity reaction solution, the ADP-Glo reaction solution and the enzyme ability detection solution were reacted in a ratio of 2:2:1, and the activity inhibition degree of the enzyme was measured as luminescence. Using the solvent-treated group that was not treated with the compound as a control group, the enzyme activity inhibition degree according to the treatment concentration of each compound was calculated based on the enzyme activity fluorescence degree, and the concentration of each compound that inhibited 50%, IC50 (nM), was determined using Prism Software (version 5.01, GraphPad).
row,SMILES,IC50
1,"Cc1cc(Nc2nc(N3N=CCC3c3ccccc3)c3sccc3n2)cc(C)c1OCCCN1CCN(C)CC1 (stereo not shown) [Example 50, N-(3,5-dimethyl-4-(3-(4-methylpiperazin-1-yl)propoxy)phenyl)-4-(5-phenyl-4,5-dihydro-1H-pyrazol-1-yl)thieno[3,2-d]pyrimidin-2-amine]",> 500 nM
2,"CN1CCN(c2ccc(Nc3nc(N4N=CCC4c4ccccc4)c4sccc4n3)cc2C(F)(F)F)CC1 (stereo not shown) [Example 53, N-(4-(4-methylpiperazin-1-yl)-3-(trifluoromethyl)phenyl)-4-(5-phenyl-4,5-dihydro-1H-pyrazol-1-yl)thieno[3,2-d]pyrimidin-2-amine]",> 500 nM
3,"COc1cc(-c2cnn(C)c2)ccc1Nc1nc(N2N=CCC2c2ccccc2)c2sccc2n1 (stereo not shown) [Example 42, N-(2-methoxy-4-(1-methyl-1H-pyrazol-4-yl)phenyl)-4-(5-phenyl-4,5-dihydro-1H-pyrazol-1-yl)thieno[3,2-d]pyrimidin-2-amine]",> 500 nM
4,"Cc1cc(Nc2nc(N3N=CCC3c3ccccc3)c3sccc3n2)cc(C)c1OCCCN1CCCC1 (stereo not shown) [Example 49, N-(3,5-dimethyl-4-(3-(pyrrolidin-1-yl)propoxy)phenyl)-4-(5-phenyl-4,5-dihydro-1H-pyrazol-1-yl)thieno[3,2-d]pyrimidin-2-amine]",> 500 nM

# More lines, now with the values ahead:
row,IC50,SMILES
1,> 500 nM,"CN1CCN(C2CCN(c3c(F)cc(Nc4nc(N5N=CCC5c5ccccc5)c5sccc5n4)cc3F)CC2)CC1 (stereo not shown) [Example 55, N-(3,5-difluoro-4-(4-(4-methylpiperazin-1-yl)piperidin-1-yl)phenyl)-4-(5-phenyl-4,5-dihydro-1H-pyrazol-1-yl)thieno[3,2-d]pyrimidin-2-amine]"
2,> 500 nM,"CN1CCN(Cc2ccc(Nc3nc(N4N=CCC4c4ccccc4)c4sccc4n3)cc2C(F)(F)F)CC1 (stereo not shown) [Example 54, N-(4-((4-methylpiperazin-1-yl)methyl)-3-(trifluoromethyl)phenyl)-4-(5-phenyl-4,5-dihydro-1H-pyrazol-1-yl)thieno[3,2-d]pyrimidin-2-amine]"
3,> 500 nM,"CCN1CCN(c2c(F)cc(Nc3nc(N4N=CCC4c4ccccc4)c4sccc4n3)cc2F)CC1 (stereo not shown) [Example 56, N-(4-(4-ethylpiperazin-1-yl)-3,5-difluorophenyl)-4-(5-phenyl-4,5-dihydro-1H-pyrazol-1-yl)thieno[3,2-d]pyrimidin-2-amine]"
